Data from patent US12031150B2, “Methods, compositions and kits for increasing genome editing efficiency” (Vertex Pharmaceuticals Incorporated, priority 2016, dated 2024).
Values joined by “and” are separate entries in the source; they are usually repeats but may differ in a detail not shown here. Identical values can stand only once. “Also recorded” adds a separate entry of the source.

How the values were obtained:
[1] = test system: HDR repair pathway in the HEK293-EGIP cell line; assay: Traffic light reporter (TLR) assay, HDR efficiency by FACS (GFP positive cells); assay type: cell-based, human; settings: for FACS Analysis - Percent HDR enhancement (gRNA-Cas9 + donor), Mean / FACS Analysis - Percent HDR enhancement (gRNA-Cas9 + donor), single replicate: 2.5 uM compound, HEK293-EGIP; for FACS Analysis - Percent HDR enhancement (gRNA-Cas9 + donor), Mean: mean of three technical replicates; for FACS Analysis - Percent HDR enhancement (gRNA-Cas9 + donor), single replicate: technical replicates 1-3 of one experiment; for fold increase in the amount of CRISPR-genome edited cells (HDR enhancement): compared to transfection in the absence of compound, Table 1, FIG. 2C; for GFP positive cells after transfection of donor repair template and gRNA-Cas9 (qualitative): FIG. 2A FACS dot plots
Source text: Traffic light reporter (TLR) assay: The HEK293-EGIP (Enhanced Green Fluorescent inhibited Protein) stable cell line was purchased from System Biosciences (SBI). The HEK293-EGIP cell line harbors a disrupted GPP coding sequence with a stop codon and a 53-bp genomic fragment from the AAVS1 locus. Cells were maintained in DMEM (Life Technologies, cat. no. 10313-039) with high glucose (Life Technologies, cat. no. 10313-039) supplemented with 10% heat-inactivated FBS (Fetal Bovine Serum, Expression Systems Inc.), Glutamax and Penicillin+Streptomycin and cultured at 37° C. and 5% CO2.
Cell transfection and NHEJ inhibitor treatment: The HEK293-EGIP stable cells were transfected with the two-in-one gRNA/CRISPR-Cas9 dual plasmid vector, plasmid repair donor (both plasmids from System Biosciences). Transfection was carried out using the Amaxa nucleofector system (Lonza) following manufacturer's protocol. After 16 hours, cells were treated with Compound 1 and Scr7 (Excess Bioscience; no. M60082-2s) at various concentrations, including 1 μM, 2.5 μM, 5 μM and 10 μM of compound. The structure of Scr7 is shown as follows:
Cell Sorting and Flow Cytometry: For flow cytometry analysis, HEK293 cells were trypsinized and resuspended in PBS/1% BSA FACS buffer and analyzed with a Fortessa flow cytometer (Becton Dickinson). A portion of cells were centrifuged and used for the isolation of genomic DNA.
Assays were performed to ascertain HDR efficiency in HEK293-EGIP cells. To this end, a bicistronic construct was used that targets the human AAVS1 locus (FIG. 1A). The bicistronic vector system co-expresses human codon optimized Cas9 driven by the EF1 promoter as well as custom guide RNA (gRNA) consisting of a chimeric crRNA-tracrRNA transcript driven by the Hl promoter. The hspCas9 contains two nuclear localization signals (NLS) at the N-terminus and C-terminus to ensure efficient import of the hspCas9 protein into the nucleus. The hspCas9 open reading frame (ORF) is followed by a regulatory element called WPRE (Woodchuck virus post-transcriptional regulatory element) to boost gene expression and stabilize the mRNA transcript.
The engineered human cell line, EGIP HEK293 was used to monitor HDR efficiency using the bicistronic construct described above and in FIG. 1A. The EGIP HEK293 reporter cell line was purchased from SBI. The HEK293-EGIP cell line harbors a disrupted GFP coding sequence with a stop codon and a 53-bp genomic fragment from the AAVS1 locus. The stable line was generated by lentiviral infection of 293T cells with an EF1alpha promoter to drive the expression of eGFP followed by puromycin selection. The eGFP sequence was modified to insert a 56 nucleotide insert (uppercase) from the human AAVS1 safe harbor site. This sequence contains a stop codon (TAA in red) after amino acid T109 in the eGFP translated sequence. The guide sequences targeted are in bold letters. Upon transfection with the guide and donor, the AAVS1 site within the broken eGFP was cut and the donor construct provided a homologous sequence to repair the eGFP, by removing the stop codon and the AAVS1 insert. Edited cells which had undergone HDR donor repair will generate GFP positive cells. Accordingly, co-transfecting Cas9, gRNA targeting AAVS1 and a AAVS1/EGFP rescue donor restored the sequence by HDR to give GFP+ cells.
The population of GFP positive cells was directly proportional with the efficiency of the homology directed repair (FIG. 1B).
For these assays, two-in-one Cas9-sgRNAs and eGFP donor template vectors were introduced into the HEK293 EGIP cells by electroporation using the Amaxa nucleofector (Lonza) to drive the synthesis of Cas9-sgRNAs and the eGFP donor template. Compounds were added 16 h post transfection followed by media change 48 hours later. Cells were then allowed to propagate for an additional 72 hours before FACS analysis. […]

[2] = test system: HDR repair pathway in the HEK293-EGIP cell line; assay: as above; assay type: cell-based, human; settings: for GFP positive cells: flow cytometry 10 days post transfection, 10 μM, FIG. 4; for increase in the amount of CRISPR-genome edited HEK-EGIP cells: 2.5 μM, 24 hours, in comparison to the gRNA-Cas9 and donor template condition only, FIG. 2A
[3] = test system: HDR efficiency in HEK-293 EGIP cells; assay: PCR genotyping and gel densitometry quantification of HDR efficiency; assay type: cell-based, human; settings: HEK293-EGIP cells nucleofected with donor template and Cas9-sgRNA; for HDR Editing Efficiency, replicate 1 hdr 1 / HDR Editing Efficiency, replicate 2 hdr 2 / HDR Editing Efficiency, replicate 3 hdr 3 / HDR Editing Efficiency, replicate 4 hdr 4: PCR band densitometry; for HDR Editing Efficiency, Average: average of replicates 1-4
Source text: Genomic DNA isolation, PCR Genotyping, and Gel Quantification: Specially designed PCR primer pairs provided another means to assess HDR-mediated genome editing to obtain functional eGFP positive cells. The genotyping PCR primer pair is shown below, corresponding to SEQ ID NOs: 6 and 7. A 219 bp PCR product corresponds to unmodified cells and a 163 bp nucleotide corresponds to modification through HDR. Intensity of these bands on a >2.5% gel allows for estimation of HDR by densitometry using a Bio-Imager. The technique allows for the relative ranking of improvement of HDR by inhibitors. Intensities measured for each lane were normalized by calculating the ratios of PCR bands corresponding to ‘insertions’ divided by ‘total’ (inserted and unmodified). The fold-change was calculated by comparing the ratio of insertions with compound over that without compound.
Another series of experiments compared increase in HDR efficiency following contact with either Scr7 or Compound 1, a DNAPK inhibitor. For these experiments, HEK293-EGIP cells were nucleofected with donor template only or donor template and Cas9-sgRNA. To test the ability of Scr7 and Compound 1 to enhance HDR editing, cells that had been nucleofected with either donor template alone, or donor template and Cas9-sgRNA were administered either Scr7 or Compound 1.
HDR recombination status was ascertained by traditional “end-point” PCR primer genotyping and quantitation based on agarose band intensities. The primers produced distinct amplicons: a 219 bp nucleotide band corresponded to unmodified cells and a 163 bp nucleotide product for HDR event. Intensity of these bands on a >2.5% gel allows for estimation of HDR by densitometry using a Bio-Imager. The technique allows for the relative ranking of conditions for improvement of HDR by inhibitors of NHEJ. The genotyping PCR primer pairs for these assays is shown below.

[4] = test system: Serpin A1 gene in Huh7 hepato cellular carcinoma cells; assay: SerpinA1 gene editing assay (KpnI site introduction, PCR and Kpn digest); assay type: cell-based; settings: Huh7 cells nucleofected with gRNA, Cas9 protein, donor repair template; 2.5 pM Compound 1 for three days; vs DMSO; FIG. 5
Experimental: Assays were performed to ascertain the ability of a DNAPK inhibitor to allow for the editing of a target gene. For these assays, the editing of the Serpin A1 gene from M to Z form was assessed. To this end, Huh7 hepato cellular carcinoma cells were nucleofected with gRNA and Cas9 protein, with or without a donor repair template in which a KpnI site was introduced. The nucleofected cells were then cultured in the presence of DMSO or 2.5 pM Compound 1 for three days, following which, the genomic DNA was amplified and assessed for the introduction of the Kpn site.
The assay works as follows: when the SerpinA1 gene is edited, Kpn endonuclease is able to digest the gene fragment, resulting in the appearance of a digested band on a gel only when the SerpinA1 gene is edited. Conversely, when the SerpinA1 is not edited, the Kpn endonuclease is not able cut the gene fragment, and thus there will not be an appearance of a new, digested band on a gel.

Row | Structure (SMILES) | fold increase in HDR enhancement compared to SCR7 ([1]; 10 μM Compound 3, experiments in triplicates, compared to transfection in the presence of SCR7) | GFP positive cells [2] | FACS Analysis - Percent HDR enhancement (gRNA-Cas9 + donor), Mean [1] | FACS Analysis - Percent HDR enhancement (gRNA-Cas9 + donor), single replicate [1] | fold increase in the amount of CRISPR-genome edited cells (HDR enhancement) ([1]; 2.5 μM) | fold better HDR enhancement compared to transfection with Scr7 ([1]; 2.5 μM, two separate experiments in triplicates, FIGS. 2B and 2C) | GFP positive cells after transfection of donor repair template and gRNA-Cas9 (qualitative) [1] | HDR Editing Efficiency, replicate 1 hdr 1 [3] | HDR Editing Efficiency, replicate 2 hdr 2 [3] | HDR Editing Efficiency, replicate 3 hdr 3 [3] | HDR Editing Efficiency, replicate 4 hdr 4 [3] | HDR Editing Efficiency, Average [3] | gene editing of the SerpinA1 gene (introduction of Kpn site, digested band on gel) [4] | increase in the amount of CRISPR-genome edited HEK-EGIP cells [2]
1 | CNC(=O)c1ccnc2c([C@H](C)CNc3cc(-c4ccc(C)nc4)ncn3)cccc12 [Compound 3] | about 8 fold | 4% |  |  |  |  |  |  |  |  |  |  |  | 
2 | CNC(=O)c1ccnc2c([C@H](C)CNc3cc(-c4cnc(C)nc4)ncn3)cccc12 [Compound 1, (5)-N-methyl-8-(1-((2′-methyl-[4,5′-bipyrimidin]-6-yl)amino)propan-2-yl)quinoline-4-carboxamide] |  |  | 0.64% | 0.44% and 6.82% and 0.65% | ~4.5 fold | 2 fold | increase in GFP positive cells | 8.4 and 4.3 and 4.9 | 29 and 27.4 (2×) | 27.5 and 58.3 and 29.8 | 27.6 and 40 and 25.1 | 23.125 and 32.5 and 21.8 | allowed for gene editing in comparison to the DMSO condition; also recorded: resulted in gene editing of the SerpinA1 gene | approximately 83%
3 | Oc1nc(S)nc(/N=C/c2ccccc2)c1/N=C/c1ccccc1 [Scr7, reference compound] |  | about 0.5% | 0.32% | 0.16% and 0.62% and 0.19% | ~2.3 fold |  | increase in GFP positive cells | 1.3 and 14.1 and 5.8 | 18.2 and 22.7 and 21.8 | 16.6 and 20.2 and 21.3 | 16.4 and 28.1 and 23 | 13.125 and 21.275 and 17.975 |  | approximately 30%
